These results are taken from patent US20120157401A1, “METHODS FOR TREATING NEUROFIBROMATOSIS” (PTC Therapeutics, Inc., priority 2009, published 2012).

For data set [1], the system named is SY5Y orthotopic xenografts. In words: Orthotopic SY5Y neuroblastoma tumor model (kidney capsule): tumor weight. Type of data set: in vivo. The text has this:
Experimental Design. In orthotopic tumor models, human tumor cells are implanted into the mouse in an organ that corresponds to the location from which the tumors arise. Such models may provide a better predictor of clinical efficacy than injection of tumors into the flanks of nude mice. See Hoffman, Invest. New Drugs 1999, 17(4):343-59. SY5Y neuroblastoma or SKNEP Ewing sarcoma tumor cells (1×10^6 cells/mouse) were implanted into the kidney capsule of female athymic nude mice according to published methods. See Huang et al., Proc. Natl. Acad. Sci. USA 2003, 100(13):7785-90. One week after implantation of each type of tumor, mice were divided into 2 groups and were administered a test Compound as shown in Table 21.
After 5 weeks of treatment, the mice were sacrificed, and the weights of the tumors were assessed.

The nature of data set [2]: Functional observation battery, 7 days oral gavage. It is filed as in vivo, Sprague Dawley rats. The following applies: 40, 120, and 400 mg/kg daily for 7-days.
In the next data set the test system is tumor perfusion. In words: Patients: tumor perfusion by DCE-MRI. Type of data set: in vivo, human. An excerpt:
Tumor perfusion using DCE-MRI: Assessing tumor blood flow offers an additional parameter of a Compound's action that can confirm the downstream consequences of decreasing tumor VEGF. Measurement of blood flow in target lesions provides direct evidence of a Compound's action on tumors that can be correlated with plasma VEGF changes. Assessment of tumor perfusion using DCE-MRI may be used to evaluate the efficacy of a Compound using standard protocols (see., e.g., Morgan et al., J. Clin. Oncol., Nov. 1, 2003, 21(21):3955-64; Leach et al., Br. J. Cancer, May 9, 2005, 92(9):1599-610; Liu et al., J. Clin. Oncol., August 2005, 23(24): 5464-73; and Thomas et al., J. Clin. Oncol., Jun. 20, 2005, 23(18):4162-71).
Tumor Perfusion with DCE-MRI. Subjects may undergo DCE-MRI for the target lesion of interest during the screening period and between 1 to 8 hours after the AM dose at various times throughout the treatment protocol.

A further data set relates to T47D xenografts. In words: T47D estrogen-sensitive breast cancer xenograft: tumor growth.
The subject of another data set is IL-6. In words: Patients: serum and plasma IL-6 levels. It is filed as in vivo, human. As for the experimental part: Subjects with NF2 may receive continuous daily treatment with a Compound administered at 100 mg per dose, 2 times a day (BID) for up to 1 year, or longer as appropriate, or until tumor progression. […] Tumor shrinkage or an improvement in hearing are indicators of efficacy.
Anti-angiogenic activity: Assessing VEGF concentrations provides a relevant and convenient mechanism-specific marker of Compound activity. […] For example, clinically validated ELISA kits (e.g., from R&D Systems, Minneapolis, Minn.) may be used to measure concentrations of VEGF, VEGF-C, P1GF, VEGFR, and inflammatory mediators such as IL-6 and IL-8. CT scan and MRI scan may also be used to assess peritumoral inflammation or edema.
Blood for VEGF, VEGFR, and Cytokines. Two blood samples (1 for plasma and 1 for serum) may be obtained for assessment of VEGF, VEGFR, and cytokine levels.
After processing, samples may be placed into a freezer at approximately −70° C. An ELISA-based multiplex system may be used to measure plasma VEGF and cytokine levels.

Data set [3] deals with human-ether-a-go-go-related gene (hERG) current (Homo sapiens, UniProt Q12809). In words: Higher throughput hERG assay. Type of data set: cell-based. (In general: hERG is a cardiac potassium channel; its block is linked to QT prolongation.)
For another data set, the system named is MDA-MB-468 xenografts. In words: MDA-MB-468 estrogen-insensitive breast cancer xenograft: tumor growth. Type of data set: in vivo. The protocol:
Tumor size was measured by calipers at periodic intervals. When the individual tumor size in a mouse exceeded 1500 mm^3, that mouse was sacrificed and both tumor and plasma were assayed for pathologic VEGF concentration as described in Section 9.1.1.1.

The test system of data set [4] is bacterial reverse mutation. In words: Bacterial reverse mutation study. Type of data set: cell-based. The following applies: with and without metabolic activation. As for the experimental part: Genotoxicity was assessed in a battery of in vitro and in vivo studies that included a bacterial reverse mutation study, a chromosome aberration study in Chinese hamster ovary (CHO) cells, and a micronucleus study in rats by the oral route. The in vitro studies were performed in the presence and absence of an exogenous metabolic activation system.

The test system of data set [5] is tumor vessels (CD31 endothelial cells). In words: Intratumoral microvessel density, anti-murine CD31 immunostain, HT1080 xenografts. To be noted: racemic mixture, 5 mg/kg of Compound #10 oral BID, 10 days. It is filed as in vivo, athymic nude mice. The protocol:
Experimental Design. HT1080 cells (5×10^6 cells/mouse) were implanted subcutaneously in male athymic nude mice.
At the end of treatment, the mice were sacrificed. Excised tumors were assayed by ELISA for VEGF content as described in Section 9.1.1.1, and were sectioned and immunostained with an anti murine CD31 antibody that is specific for endothelial cells.

A short description of data set [6]: Patients: hearing function (word recognition, pure tone threshold, BAER). It is filed as in vivo, human. An excerpt:
Hearing function: Assessments of word recognition and pure tone thresholds may be direct measures of patient functioning that define symptomatic consequences of the presence of VS (see, e.g., Halpin et al., Otol Neurotol., January 2006, 27(1):110-6). Standard clinical criteria for definition of hearing response (H-R) based on a 50-word hearing test (see, e.g., Thornton et al., J. Speech Hear. Res., September 1978, 21(3): 507-18) can be employed for word recognition tests.
Hearing Tests. Subjects may undergo hearing tests at screening, and at various times during the treatment protocol. Hearing assessment may be determined in standard clinical fashion and may include:
Determination of word recognition scores using a standardized list of test words, i.e., the 50-item Central Institute for the Deaf [CID] list W-22, recorded) (Thornton et al., J. Speech Hear Res., September 1978, 21(3): 507-18);
Pure-tone averages calculated as the average of the pure-tone thresholds at 500, 1000, 2000, and 3000 Hz;
Brainstem auditory evoked response (BAERs) reported as the latency of wave V, if present; and […]

Marks after values point to notes of the source that are not given here.

Sequence of human-ether-a-go-go-related gene (hERG) current (Q12809 whole entry): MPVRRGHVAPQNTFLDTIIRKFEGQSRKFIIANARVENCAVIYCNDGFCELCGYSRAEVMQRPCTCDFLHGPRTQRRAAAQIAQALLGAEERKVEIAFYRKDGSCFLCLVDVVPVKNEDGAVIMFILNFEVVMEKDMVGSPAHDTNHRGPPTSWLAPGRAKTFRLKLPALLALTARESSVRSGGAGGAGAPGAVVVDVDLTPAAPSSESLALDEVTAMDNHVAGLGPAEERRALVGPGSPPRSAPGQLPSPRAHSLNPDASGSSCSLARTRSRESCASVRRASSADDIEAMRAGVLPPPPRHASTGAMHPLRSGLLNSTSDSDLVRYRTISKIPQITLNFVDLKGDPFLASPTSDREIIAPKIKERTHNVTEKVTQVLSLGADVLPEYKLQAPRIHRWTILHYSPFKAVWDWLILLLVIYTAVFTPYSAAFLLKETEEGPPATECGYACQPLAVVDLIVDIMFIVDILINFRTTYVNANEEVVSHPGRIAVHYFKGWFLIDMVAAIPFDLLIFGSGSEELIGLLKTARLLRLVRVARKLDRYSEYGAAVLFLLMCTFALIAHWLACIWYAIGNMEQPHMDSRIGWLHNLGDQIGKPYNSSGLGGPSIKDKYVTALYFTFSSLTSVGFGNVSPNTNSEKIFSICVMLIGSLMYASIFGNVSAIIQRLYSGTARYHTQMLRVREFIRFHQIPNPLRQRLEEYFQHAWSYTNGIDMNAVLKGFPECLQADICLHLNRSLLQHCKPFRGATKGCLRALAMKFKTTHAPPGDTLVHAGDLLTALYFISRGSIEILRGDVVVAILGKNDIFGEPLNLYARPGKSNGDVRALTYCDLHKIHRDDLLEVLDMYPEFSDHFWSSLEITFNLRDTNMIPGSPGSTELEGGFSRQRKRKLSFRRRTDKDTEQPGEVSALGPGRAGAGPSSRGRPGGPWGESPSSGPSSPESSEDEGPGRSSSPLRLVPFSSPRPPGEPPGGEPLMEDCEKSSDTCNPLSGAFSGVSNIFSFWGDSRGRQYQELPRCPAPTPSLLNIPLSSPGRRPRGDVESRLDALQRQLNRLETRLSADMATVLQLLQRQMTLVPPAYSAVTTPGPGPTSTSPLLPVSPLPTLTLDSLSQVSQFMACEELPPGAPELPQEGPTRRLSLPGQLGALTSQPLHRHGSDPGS
Protocol for T47D xenografts: Experimental Design. Estrogen pellets (0.72 mg/pellet) were implanted 30 days prior to cell implantation and again 60 days later. T47D estrogen-sensitive breast cancer cells (5×10^6 cells/mouse mixed 1:1 with […] ™) were implanted subcutaneously in female athymic nude mice. […] Tamoxifen was included as a positive control.
Tumor size was measured by calipers at periodic intervals. After 74 days of treatment, the mice were sacrificed.

For the molecule `COc1ccc(C2c3[nH]c4ccc(Cl)cc4c3CCN2C(=O)Oc2ccc(Cl)cc2)cc1` (racemic) [Compound #10], in data set [1] (5 weeks of treatment), the “Growth of orthotopic SY5Y tumors (tumor weight)” value is listed as “completely prevented growth”. For the same molecule, in [1] (orthotopic SKNEP and SY5Y mice), the “Toxicity on observing the animals” value was “no evidence of toxicity”. Besides, the “Behavioral or neurological effects” value in [2] was “no adverse behavioral or neurological effects”. For the same molecule, the “Tumor perfusion in patients by DCE-MRI (FIG. 36)” value in the data set with tumor perfusion was “reduced”. In addition, the “Mean % Inhibition of Tumor Size vs Vehicle at Day 74” value in the data set on T47D xenografts (10 mg/kg oral QD) turned out to be 40%. For the same molecule, in the data set on T47D xenografts (T47D xenograft mice, 10 mg/kg QD, 74 days), the “Toxicity on observing the animals” value is reported as “no evidence of toxicity”. Moreover, in the data set on IL-6, the “Plasma IL-6 levels in patients (FIG. 38)” value is on record as “reduced”. Also, the “Inhibition of hERG current” value in data set [3] is “negative for meaningful inhibition”. Moreover, in the data set with MDA-MB-468 xenografts (10 mg/kg oral QD), the “Mean % Inhibition of Tumor Size vs Vehicle at Day 12” value is 65* % and the “Median Time to Tumor Size ≧1000 mm^3” value is given as 25 days. In the data set on MDA-MB-468 xenografts (MDA-MB-468 xenograft mice, 10 mg/kg QD), the “Toxicity on observing the animals” value is on record as “no evidence of toxicity”. The “Genotoxic effects, bacterial reverse mutation” value in [4] is on record as “no evidence of genotoxic effects”. In data set [5], the “Total volume of tumor vessels and diameters of vessels” value is recorded as “visibly reduced”; the Tumor vessel count result was “unchanged”. Also, the “Hearing function in patients (FIG. 39)” value in data set [6] was “stabilized hearing function”.
